Consider 23 compounds from patent US20170050980A1, “OXADIAZINE COMPOUNDS AND METHODS OF USE THEREOF” (FORUM Pharmaceuticals Inc., priority 2015, published 2017).

The subject of the experiment is Aβ42. Briefly: In vitro cell screening assay; quantification of Aβ (1-42) peptide by sandwich ELISA. Format: cell-based. Conditions: Human neuroglioma H4 cells stably expressing human wild type APP751; compounds 0.003-10 μM, incubated overnight (16-18 h); Aβ42 in supernatant by sandwich ELISA; normalized to DMSO and DAPT; read-out: Aβ42 H4 Prot Fre IC50. The procedure: Human neuroglioma H4 cells were transfected with a pcDNA3.1 plasmid expressing human wild type APP751 cDNA and a stable cell line was generated using G418 selection. Cells were plated at 15,000 cells/well in Costar 96-well plates and placed at 37° C. and 5% CO2. Six hours after plating, cells were washed three times with Pro293™ chemically defined medium, followed by addition of compounds (0.003-10 μM, final DMSO concentration of 0.33%). Plates were incubated overnight (16-18 h) and supernatant was removed for quantification of Aβ peptides by sandwich ELISA. Cytotoxicity was evaluated using Cell-Titer 96W AQueous One Solution Cell Proliferation Assay according to the manufacturer's protocol.
Aβ peptide levels were quantified by sandwich ELISA. 96-well plates were coated with C-terminal specific Aβ antibodies recognizing either Aβ37, Aβ38, Aβ40, Aβ42, Aβ43 or a N-terminal specific Aβ antibody to detect Aβ 1-x. Plates were then blocked overnight at 4° C. with 1% bovine serum albumin (BSA) in PBS-T. Plates were washed and 100 μl of cultured cell supernatant or synthetic Aβ peptide standards and a detection antibody (4G8-HRP) were applied to the blocked plate and incubated overnight at 4° C. The next day, wells were washed before the addition of detection substrate (TMB peroxidase). Plates were then read for absorbance at 450 nm on a Molecular Devices SpectraMax M5e Microplate Reader.
Compound-treated samples were normalized to samples treated with DMSO alone (no inhibition) and to samples treated with DAPT. IC50 values were calculated from values reported as percent of DMSO controls using nonlinear regression, based on a sigmoidal dose—response (variable slope) model. […] used for calculation.
Take `COc1nc(C2=NOCC(C)(c3cn(C)c4ccccc34)N2)ccc1-n1cnc(C)c1` (single isomer, unassigned; (-)) [Example 26B, (−)-3-[3-[6-methoxy-5-(4-methyl-1H-imidazol-1-yl)pyridin-2-yl]-5-methyl-5,6-dihydro-4H-1,2,4-oxadiazin-5-yl]-1-methyl-1H-indole]: the IC50 worked out at 310 nM.
Turning to `COc1nc(C2=NOCC(c3cn(C)c4ccc(C5CCOCC5)cc34)N2)ccc1-n1cnc(C)c1` (single isomer, unassigned; (+)) [Example 29B, (+)-3-(6-methoxy-5-(4-methyl-1H-imidazol-1-yl)pyridin-2-yl)-5-(1-methyl-5-(tetrahydro-2H-pyran-4-yl)-1H-indol-3-yl)-5,6-dihydro-4H-1,2,4-oxadiazine], the IC50 came to 20.5 nM.
With `COc1nc(C2=NO[C@H](C)[C@H](c3ccc(Cl)cc3)N2)ccc1-n1cnc(C)c1` [Example 18B, (+)-(5S,6R)-5-(4-chlorophenyl)-3-[6-methoxy-5-(4-methyl-1H-imidazol-1-yl)pyridin-2-yl]-6-methyl-5,6-dihydro-4H-1,2,4-oxadiazine] the figure was 19 nM; with `COc1nc(C2=NOC(C)C(c3cccc(Cl)c3)N2)ccc1-n1cnc(C)n1` (single isomer, unassigned; (+)) [Example 53B, (+)-5-(3-chlorophenyl)-3-(6-methoxy-5-(3-methyl-1H-1,2,4-triazol-1-yl)pyridin-2-yl)-6-methyl-5,6-dihydro-4H-1,2,4-oxadiazine], 172 nM; with `COc1nc(C2=NOC(C)C(c3cn(C)c4cc(F)c(F)cc34)N2)ccc1-n1cnc(C)c1` (single isomer, unassigned; (+)) [Example 39A, (+)-5-(5,6-difluoro-1-methyl-1H-indol-3-yl)-3-(6-methoxy-5-(4-methyl-1H-imidazol-1-yl)pyridin-2-yl)-6-methyl-5,6-dihydro-4H-1,2,4-oxadiazine], 5.4 nM.
With `COc1nc(C2=NOC(C3CC3)C(c3cn(C)c4nccc(F)c34)N2)ccc1-n1cnc(C)c1` (single isomer, unassigned; (-)) [Example 63B, (−)-6-cyclopropyl-5-(4-fluoro-1-methyl-1H-pyrrolo [2,3-b]pyridin-3-yl)-3-(6-methoxy-5-(4-methyl-1H-imidazol-1-yl)pyridin-2-yl)-5,6-dihydro-4H-1,2,4-oxadiazine] the figure was 105 nM; with `COc1nc(C2=NOC(C)C(c3cn(C)c4ccc(F)c(F)c34)N2)ccc1-n1cnc(C)c1` (single isomer, unassigned; (-)) [Example 52D, (−)-5-(4,5-difluoro-1-methyl-1H-indol-3-yl)-3-(6-methoxy-5-(4-methyl-1H-imidazol-1-yl)pyridin-2-yl)-6-methyl-5,6-dihydro-4H-1,2,4-oxadiazine], 401 nM.
With `COc1nc(C2=NOC(C)C(c3ccc(Cl)cc3)N2)ccc1-n1cnc(Cl)c1` (single isomer, unassigned; (+)) [Example 42B, (+)-3-(5-(4-chloro-1H-imidazol-1-yl)-6-methoxypyridin-2-yl)-5-(4-chlorophenyl)-6-methyl-5,6-dihydro-4H-1,2,4-oxadiazine] the figure was 18.4 nM.
`COc1nc(C2=NOCC3CN(c4ccc(Cl)cc4C(F)(F)F)CCN23)ccc1-n1cnc(C)c1` (single isomer, unassigned) [Example 36A, 8-(4-chloro-2-(trifluoromethyl)phenyl)-4-(6-methoxy-5-(4-methyl-1H-imidazol-1-yl)pyridin-2-yl)-1,6,7,8,9,9a-hexahydropyrazino [1,2-d] [1,2, 4] oxadiazine]: the IC50 came out at 64 nM.
`COc1nc(C2=NOC(C)C(c3cc4ccc(Cl)cc4o3)N2)ccc1-n1cnc(C)c1` (single isomer, unassigned) [Example 46B, 5-(6-chlorobenzofuran-2-yl)-3-(6-methoxy-5-(4-methyl-1H-imidazol-1-yl)pyridin-2-yl)-6-methyl-5,6-dihydro-4H-1,2,4-oxadiazine]: the IC50 came out at 5.1 nM.
With `COc1nc(C2=NOC(C3CC3)C(c3cn(C)c4ncc(Cl)cc34)N2)ccc1-n1cnc(C)c1` (stereo not drawn) [57B or 58B, (−)-(cis)-5-(5-chloro-1-methyl-1H-pyrrolo[2,3-b]pyridin-3-yl)-6-cyclopropyl-3-(6-methoxy-5-(4-methyl-1H-imidazol-1-yl)pyridin-2-yl)-5,6-dihydro-4H-1,2,4-oxadiazine] the figure was 6.7 nM.
With `COc1nc(C2=NOC(C)C(c3cccc(Cl)c3)N2)ccc1-n1cnc(Cl)c1` (single isomer, unassigned; (+)) [Example 47B, (+)-3-(5-(4-chloro-1H-imidazol-1-yl)-6-methoxypyridin-2-yl)-5-(3-chlorophenyl)-6-methyl-5,6-dihydro-4H-1,2,4-oxadiazine] the figure was 36.2 nM; with `COc1nc(C2=NOC(C)C(c3cn(C)c4cc(F)c(Cl)cc34)N2)ccc1-n1cnc(C)c1` (single isomer, unassigned; (-)) [Example 21A, (−)-5-(5-chloro-6-fluoro-1-methyl-1H-indol-3-yl)-3-(6-methoxy-5-(4-methyl-1H-imidazol-1-yl)pyridin-2-yl)-6-methyl-5,6-dihydro-4H-1,2,4-oxadiazine], 65 nM.
With `COc1nc(C2=NOCC(c3c4n(c5ccc(Cl)cc35)CCOC4)N2)ccc1-n1cnc(C)c1` (single isomer, unassigned; (+)) [Example 28A, (+)-8-chloro-10-(3-(6-methoxy-5-(4-methyl-1H-imidazol-1-yl)pyridin-2-yl)-5,6-dihydro-4H-1,2,4-oxadiazin-5-yl)-3,4-dihydro-1H-[1,4]oxazino[4,3-a]indole] the figure was 5.3 nM; with `COc1nc(C2=NO[C@@H](C)[C@@H](c3ccc(Cl)cc3)N2)ccc1-n1cnc(C)c1` [Example 18A, (−)-(5R,6S)-5-(4-chlorophenyl)-3-[6-methoxy-5-(4-methyl-1H-imidazol-1-yl)pyridin-2-yl]-6-methyl-5,6-dihydro-4H-1,2,4-oxadiazine], 2220 nM; with `COc1nc(C2=NOC(C)C(c3ccc(Cl)cc3)N2)ccc1-n1cnc(C)c1` (stereo not drawn) [Example 24B, (+)-trans-5-(4-chlorophenyl)-3-[6-methoxy-5-(4-methyl-1H-imidazol-1-yl)pyridin-2-yl]-6-methyl-5,6-dihydro-4H-1,2,4-oxadiazine], 15 nM.
Take `COc1nc(C2=NOC(C3CC3)C(c3cn(C)c4ncc(F)c(F)c34)N2)ccc1-n1cnc(C)c1` (single isomer, unassigned; (-)) [Example 60B, (−)-6-cyclopropyl-5-(4,5-difluoro-1-methyl-1H-pyrrolo [2,3-b]pyridin-3-yl)-3-(6-methoxy-5-(4-methyl-1H-imidazol-1-yl)pyridin-2-yl)-5,6-dihydro-4H-1,2,4-oxadiazine]: the IC50 came to 42.7 nM.
For the compound `COc1nc(C2=NOC(C3CC3)C(c3ccc(Cl)cc3)N2)ccc1-n1cnc(C)c1` (stereo not drawn) [Example 20A, (−)-cis-5-(4-chlorophenyl)-6-cyclopropyl-3-[6-methoxy-5-(4-methyl-1H-imidazol-1-yl)pyridin-2-yl]-5,6-dihydro-4H-1,2,4-oxadiazine], the IC50 was determined as 1780 nM.
As for `COc1nc(C2=NOC(C)C(c3cn(C)c4ncc(C5CC5)cc34)N2)ccc1-n1cnc(C)c1` (single isomer, unassigned; (-)) [Example 56C, (−)-5-(5-cyclopropyl-1-methyl-1H-pyrrolo [2,3-b]pyridin-3-yl)-3-(6-methoxy-5-(4-methyl-1H-imidazol-1-yl)pyridin-2-yl)-6-methyl-5,6-dihydro-4H-1,2,4-oxadiazine], the IC50 turned out to be 221 nM.
On to `COc1nc(C2=NOC(C)C(c3cn(C)c4ncc(Cl)cc34)N2)ccc1-n1cnc(C)c1` (single isomer, unassigned; (-)) [Example 54C, (−)-5-(5-chloro-1-methyl-1H-pyrrolo [2,3-b]pyridin-3-yl)-3-(6-methoxy-5-(4-methyl-1H-imidazol-1-yl)pyridin-2-yl)-6-methyl-5,6-dihydro-4H-1,2,4-oxadiazine], for which the IC50 worked out at 464 nM.
With `COc1nc(C2=NOC(C)C(c3cccc(Cl)c3)N2)ccc1-n1cnc(C)c1` (single isomer, unassigned) [Example 41B, 5-(3-chlorophenyl)-3-(6-methoxy-5-(4-methyl-1H-imidazol-1-yl)pyridin-2-yl)-6-methyl-5,6-dihydro-4H-1,2,4-oxadiazine] the figure was 14.2 nM.
For `COc1nc(C2=NOC(C)C(c3cc4ccc(Cl)cc4o3)N2)ccc1-n1cnc(C)c1` (single isomer, unassigned) [Example 46C, 5-(6-chlorobenzofuran-2-yl)-3-(6-methoxy-5-(4-methyl-1H-imidazol-1-yl)pyridin-2-yl)-6-methyl-5,6-dihydro-4H-1,2,4-oxadiazine], the concentration for half-maximal inhibition (IC50) turned out to be 291 nM.
With `COc1nc(C2=NOC(C3CC3)C(c3cc4ccccc4o3)N2)ccc1-n1cnc(C)c1` (single isomer, unassigned; (-)) [Example 61B, (−)-5-(benzofuran-2-yl)-6-cyclopropyl-3-(6-methoxy-5-(4-methyl-1H-imidazol-1-yl)pyridin-2-yl)-5,6-dihydro-4H-1,2,4-oxadiazine] the figure was 598 nM.
